Test results: patent publication US6028102A, “Anticonvulsant drugs and pharmaceutical compositions thereof” (priority 1998, dated 2000)
“Also recorded” adds a separate entry of the source.

Assays:
[1] = rotored ataxia test (neurotoxicity), ip to mice; assay type: in vivo; details: for TD50: mouse, in vivo, ip
Protocol: (§1) Screening of Anticonvulsant Activity
(§2) Compounds I-XI were screened in carworth farm #1 mice (ip--in a volume of 0.01 mL/g of body weight) and sprague-Dawley rats (po--in a volume of 0.004 mL/g of body weight) for their anticonvulsant activity and neurotoxicity by the NIH epilepsy Branch [Porter et al, 1984]. The screening procedure involved the following:
(§3) 1) the maximal electroshock (MES) test, which measures seizure spread; 2) the subcutaneous pentylenetetrazol test (sc Met test) which measures seizure threshold; and 3) the rotored ataxia test which assesses neurotoxicity.
TD50 - Neurotoxic dose in 50% of the test animals.

[2] = Partitioning study, blood-plasma concentration ratio; assay type: in vitro ADME; details: dog blood, 25° C., 5-40 mg/L
Protocol: The blood-plasma concentration ratio of compounds VII and IX (partitioning study) was carried out at room temperature (25° C.) by spiking known amounts of the compound in six samples of fresh blood taken from a dog prior to drug administration. N-acetyl, N'-benzylglycinamide and Z-glycinamide concentrations were 5, 10, 15, 20, 30 and 40 mg/L. Each blood sample was centrifuged immediately after spiking and the separation of the plasma was carried out according to the procedure described hereinabove. Plasma levels of the two compounds VII and IX were determined by HPLC.

[3] = Pharmacokinetic analysis following iv administration to dogs; assay type: in vivo; details: for clearance: CL
Protocol: The experiments were carried out on six male dogs (mongrels), ranging in weight between 18 and 22 kg. In a randomized cross over design, each dog was injected intravenously (in 1.5 mL of DMSO) with a dose of 400 mg of N-acetyl,N'-benzylglycinamide (VII), 404 mg (on dose equivalent to 400 mg of compound VII) of Z-glycinamide (IX) and 406 mg of Z-glycine (VIII). Urine was collected systematically for 12 hours after dosing, by means of an indwelling catheter.
Venous blood samples (6 mL) were collected via an indwelling catheter (from the cephalic vein) at specified intervals following injection (0, 5, 10, 20, 30, 45 minutes and 1, 1.5, 2, 2.5, 3, 4, 5, 6, 7, 8, 10 and 12 hours respectively). The plasma was then immediately separated by centrifugation at 3000 g for 15 minutes and stored at -20° C. Before each assay, the plasma was allowed to reach room temperature, vortexed, centrifuged and the residual clot removed.
Urine samples were collected via a urine catheter at specified intervals following injection (0, 1, 2, 3, 4, 5, 6, 7, 8, 9, 10 and 12 hours respectively), the samples volume were measured and the urine samples were stored at -20° C. Plasma and urine levels of compounds VII, VIII and IX were then assayed by a HPLC assay described herein below.
HPLC Assay for Monitoring N-acetyl,N'-benzylglycinamide (VII) and N-benzyloxycarbonylglycinamide (IX) in Dog Plasma and Urine
Plasma samples are allowed to reach room temperature, vortexed and centrifuged. The plasma was then assayed as follows:
To 0.5 mL of plasma, 10 μg of an internal standard (N-benzyl-oxycarbonylglycinamide (IX)) and 4 mL of tert-butylmethylether were added. The mixture was vigorously vortexed for 30 seconds, centrifuged for 10 minutes at 3000 g, the organic phase was separated and evaporated to dryness (using a vortex evaporator). To the residue, 80 μl of methanol were added, the mixture was vortexed and 30 μl were injected into the HPLC (Schimadzu SCL-10A with a UV-visible detector model SPD-10A).
Urine samples are allowed to reach room temperature, vortexed and centrifuged. The urine was then assayed as follows:
To 0.25 mL of urine, 10 μg of internal standard (N-benzyl-oxycarbonylglycinamide (IX)), 100 μl of hydrochloric acid solution (1 N) and 4 mL of tert-butylmethylether were added. The mixture was vigorously vortexed for 30 seconds and centrifuged for 10 minutes at 3000 g, the organic phase was separated and transferred to another test tube containing 0.5 mL of sodium hydroxide solution (1N), the mixture was vigorously vortexed for 30 seconds, centrifuged for 10 minutes at 3000 g, the organic phase was separated and evaporated to dryness (using a vortex evaporator). To the residue, 80 μl of methanol were added, the mixture was vortexed and 30 μl were injected into the HPLC.
HPLC conditions: HPLC column; Hypersil ODS (C-18) 5μ, 4.6×150 mm; Wavelength: 258 nm; Mobile phase: 60% water, 40% methanol and 0.01% trifluoroacetic acid.
The same assay was used for monitoring N-benzyloxycarbonyl-glycinamide (IX) in dog plasma and dog urine using N-acetyl,N'-benzylglycinamide as an internal standard.
HPLC Assay for Monitoring Z-glycine (VIII) in Dog Plasma and Urine
To 0.5 mL of plasma, 10 μg of internal standard (Z-GABA), 100 μl of hydrochloric acid solution (1N) and 5 mL of tert-butylmethylether were added. The mixture was vigorously vortexed for 30 seconds, centrifuged for 10 minutes at 3000 g, the organic phase was separated and evaporated to dryness (using a vortex evaporator). To the residue, 100 μl of mobile phase were added, the mixture was vortexed and 30 μl were injected to the HPLC.
Urine samples was allowed to reach room temperature, vortexed and centrifuged. The urine was then assayed as follows:
To 0.1 mL of urine, 30 μg of internal standard (Z-GABA) and 5 mL of tert-butylmethylether were added. The mixture was vigorously vortexed for 30 seconds, centrifuged for 10 minutes at 3000 g, the organic phase was separated off. […]

[4] = subcutaneous pentylenetetrazol test (sc Met), ip to mice; assay type: in vivo
Protocol: as §1, §2, §3
(§4) ED50 - Effective dose in 50% of the test animals.

[5] = Metabolism and urinary excretion in rats; assay type: in vivo; details: iv
Protocol: (§5) In two separate experiments cold (unlabeled) Z-glycinamdie and Z-glucine were injected intravenously to male rats. For the experiments, the two compounds were dissolved in 0.2 mL of DMSO and were injected at a dose of 25 mg. Blood samples (8 mL each) were collected from the ascending vena cava of an individual rat at 5, 10, 20, 30, 45, 60, 90, 120, 150, 180, 240, 300, 360 and 480 minutes after administering the drug dose. Three rats were sacrificed for each of the aforementioned time measurements and the plasma or tissue obtained from each rat for each time point was averaged. Plasma was immediately separated by centrifugation at 3000 g for 15 minutes and stored at -20° C. until analyzed. Brain and liver were quickly removed at the same time intervals under light ether anesthesia, the excised tissues were immersed in liquid nitrogen for a few minutes and stored at -70° C. until analyzed. Four rats were kept in metabolic cages and the cumulative urine was collected from each rat for 480 minutes after dosing.
In rats […] of the N-benzyloxycarbonylglycinamide (IX) dose administered is metabolized to Z-glycine and excreted in the urine with the remaining 15% excreted as N-benzyloxycarbonylglycinamide (IX).

[6] = Blood stability study in dog blood; assay type: in vitro ADME
Protocol: Blood samples (4 mL) were then collected at the following times: 0, 1, 2, 3, 4, 5 and 6 hours. Plasma was immediately separated and the compounds concentrations in the plasma assayed by HPLC.

[7] = maximal electroshock (MES) test, ip to mice; assay type: in vivo; details: for ED50: Mus musculus
Protocol: as §1, §2, §3
Anticonvulsant activity and neurotoxicity of N-acetyl, N'-
benzylglycinamide (VII) and N-benzyloxycarbonylglycinamide
(IX) following ip administration to mice in comparison to
phthaloylglycinamide and N-valproylglycinamide^a.
MES Maximal electroshock.
as §4

[8] = Blood-brain-barrier crossing after iv injection to rats; assay type: in vivo; details: 25 mg
Protocol: as §5

[9] = Screening of anticonvulsant activity; assay type: in vivo, mice; details: for anticonvulsant activity in words: overall finding of the study
Protocol: as §1, §2, §3
Applicants therefore decided to derivatize glycinamide and the above dipeptides by synthesizing their N-acetyl and N'-benzyl derivatives (compounds IV-VIII). […] Therefore, this compound was further analyzed quantitatively and its ED50 data and protective indices in comparison to phthaloyl glycinamide and valproyl glycinamide--TV 1901 [17] are presented in Table 2. As a consequence of their anticonvulsant activity, the pharmacokinetics of compounds VII and IX were investigated following iv administration (400 mg) to six dogs, and the mean plasma levels of compounds VII and IX are presented in FIGS. 1 and 2, respectively.

[10] = mice; Kohn et al 1988, 1990, 1991; Conley and Kohn, 1987; cited from earlier work
Stability in dog plasma = assay type: in vitro ADME; details: 37° C. and 20° C.
[11] = rats; Lambert et al. [1994]; cited from earlier work
[12] = 6 hours at physiological conditions (37° C.)

Structure (SMILES) | TD50 [1] | CL ([3]; dog, in vivo) | half-life ([3]; dog, in vivo) | hepatic extraction ratio ([3]; dog, in vivo) | clearance ([3]; dog, in vivo) | MRT ([3]; dog, in vivo, MRT) | Vd ([3]; dog, in vivo, VSS) | Vd ([3]; dog, in vivo, Vss) | stability in dog blood [6, 12] | PI, MES (Protective index, ratio of TD50 to ED50) [7] | ED50 [7] | anticonvulsant activity in words [9] | pharmacokinetics and elimination in words ([3]; dog, in vivo) | Vd ([3]; dog, in vivo, Vβ) | also measured
NC(=O)CNC(=O)OCc1ccccc1 [IX, N-benzyloxycarbonylglycinamide] | 230 mg/kg | 10.7 ± 4.3 L/h | 2.3 ± 1.3 h | 0.02 | 183 mL/min | 3.3 ± 1.8 h | 33 ± 10 L | 33 ± 10 L | stable | 5.0 | 46 mg/kg | showed anticonvulsant activity in mice; also recorded: active | – | – | plasma to blood ratio [2]: 0.95±0.05; metabolised ([3]; dog, in vivo): 80 ± 14%; pharmacokinetics and elimination in words ([3]; dogs): mainly metabolized to Z-glycine; also recorded: eliminated from the body mainly by metabolism; pharmacokinetics and elimination in words ([3]; dogs, listed as Z-glycinamide): mainly metabolized to the inactive Z-glycine; PI, sc Met (Protective index, ratio of TD50 to ED50) [4]: 2.4; ED50 ([4]; Mus musculus): 95 mg/kg; dose metabolized to Z-glycine and excreted in the urine ([5]; rat, in vivo, 480 min): 75%; site of metabolism ([5]; rats): occurs primarily in the liver; crossing of the blood-brain-barrier [8]: crossed the blood-brain-barrier more readily than does Z-glycine
CC(=O)NCC(=O)NCc1ccccc1 [compound VII, N-Acetyl,N'-benzylglycinamide] | > 200 mg/kg | 6.8 ± 0.84 L/h | 2.1 ± 0.4 h | 0.0125 | 107 mL/min | 3.3 ± 0.8 h | 21 ± 4 L | 20 ± 4 L | unstable | 2.3 | 88 mg/kg | active | eliminated from the body mainly by metabolism | 19 ± 6 L | neurotoxic signs ([1]; at a dose as high as 300 mg/kg): did not show neurotoxic signs; MRT ([3]; dog, in vivo): 3.0 ± 0.6 h; t1/2 ([3]; dog, in vivo): 2.1 ± 0.5 h; anticonvulsant activity in MES test [10]: active at a higher dose of 300 mg/kg; stability in dog plasma (Stability in dog plasma): stable; stability in dog blood ([6]; 20° C.): unstable; anticonvulsant activity ([9]; ip administration of 100 mg/kg to mice): showed anticonvulsant activity
O=C(O)CNC(=O)OCc1ccccc1 [compound VIII, N-benzyloxycarbonylglycine] | – | – | 0.6 ± 0.14 h | – | 90 mL/min | 0.8 ± 0.1 h | – | 4.9 ± 0.6 L | – | – | – | lack of activity | its t1/2 was the shortest | 4.5 ± 0.8 L | fm (fraction metabolized of Z-glycinamide to Z-glycine) ([3]; dog, in vivo): 80.1 ± 13.6%; Mu/D (fraction of Z-glycine excreted in the urine as a metabolite of Z-glycinamide) ([3]; dog, in vivo, 720 min): 20 ± 19.8%; Vd ([3]; dog, in vivo, VSS / volume of distribution): 0.2 L/kg; anticonvulsant activity relative to glycine [11]: far more active than glycine; anticonvulsant activity in words ([9]; listed as Z-glycine): inactive in this study
